From the supplement of paper PMC10307832

What was measured:
Test in all cases: relative viability (nuclei count vs DMSO), 5 days (fraction); higher = more cells survive
Dabrafenib + Decitabine = compound: CC(C)(C)c1nc(-c2cccc(NS(=O)(=O)c3c(F)cccc3F)c2F)c(-c2ccnc(N)n2)s1 [Dabrafenib] + Nc1ncn([C@H]2C[C@H](O)[C@@H](CO)O2)c(=O)n1 [Decitabine] (partner 2 µM)
Outline: (§1)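 Five library-drug doses in √10 steps were combined with a fixed anchor-drug dose, or a single drug was given alone, by pin tool to lung cancer cell lines in 1536-well plates the day after seeding. Nuclei were stained and counted after 5 days. Relative viability is the nuclei count in treated wells over that in vehicle wells, taken as the median of duplicate plates.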

VX-702 + Luminespib = compound: NC(=O)c1ccc(N(C(N)=O)c2c(F)cccc2F)nc1-c1ccc(F)cc1F [VX-702] + CCNC(=O)c1noc(-c2cc(C(C)C)c(O)cc2O)c1-c1ccc(CN2CCOCC2)cc1 [Luminespib] (partner 0.01 µM)
Outline: as §1

VX-702 + Dasatinib = compound: NC(=O)c1ccc(N(C(N)=O)c2c(F)cccc2F)nc1-c1ccc(F)cc1F [VX-702] + Cc1nc(Nc2ncc(C(=O)Nc3c(C)cccc3Cl)s2)cc(N2CCN(CCO)CC2)n1 [Dasatinib] (partner 0.075 µM)
Outline: as §1

Dabrafenib + Bortezomib = compound: CC(C)(C)c1nc(-c2cccc(NS(=O)(=O)c3c(F)cccc3F)c2F)c(-c2ccnc(N)n2)s1 [Dabrafenib] + CC(C)C[C@H](NC(=O)[C@H](Cc1ccccc1)NC(=O)c1cnccn1)B(O)O [Bortezomib] (partner 0.002 µM)
Outline: as §1

Cell Line	relative viability (Dabrafenib + Decitabine; first compound 0.003 µM)	relative viability (Dabrafenib + Decitabine; first compound 0.009487 µM)	relative viability (Dabrafenib + Decitabine; first compound 0.09487 µM)	relative viability (Dabrafenib + Decitabine; first compound 0.3 µM)	relative viability (VX-702 + Luminespib; first compound 0.02 µM)	relative viability (VX-702 + Luminespib; first compound 0.2 µM)	relative viability (VX-702 + Luminespib; first compound 0.6325 µM)	relative viability (VX-702 + Luminespib; first compound 2 µM)	relative viability (VX-702 + Dasatinib; first compound 0.02 µM)	relative viability (VX-702 + Dasatinib; first compound 0.2 µM)	relative viability (VX-702 + Dasatinib; first compound 0.6325 µM)	relative viability (VX-702 + Dasatinib; first compound 2 µM)	relative viability (Dabrafenib + Decitabine; first compound 0.03 µM)	relative viability (Dabrafenib + Bortezomib; first compound 0.003 µM)	relative viability (Dabrafenib + Bortezomib; first compound 0.009487 µM)	relative viability (Dabrafenib + Bortezomib; first compound 0.03 µM)	relative viability (Dabrafenib + Bortezomib; first compound 0.09487 µM)	relative viability (Dabrafenib + Bortezomib; first compound 0.3 µM)
LK-2	0.225	0.287	0.326	0.22	0.199	0.175	0.175	0.178	0.269	0.329	0.219	0.288	–	–	–	–	–	–
NCI-H1395	–	0.726	0.696	0.66	0.634	0.592	0.892	0.712	0.414	0.413	0.415	0.447	0.738	–	–	–	–	–
NCI-H522	–	0.675	0.755	0.666	0.868	1.11	1.26	1.2	0.978	0.7	0.83	0.984	0.64	–	–	–	–	–
NCI-H1299	–	–	–	–	–	–	–	–	–	–	–	–	–	0.962	0.97	1	0.993	1
SK-MES-1	0.362	0.441	0.382	0.338	0.839	0.711	0.673	0.822	0.374	0.389	0.342	0.398	0.405	–	–	–	–	–
IA-LM	–	–	–	–	–	–	–	–	–	–	–	–	–	0.84	0.646	0.492	0.471	0.222
NCI-H358	0.198	0.198	0.195	0.152	0.245	0.416	0.583	0.4	0.146	0.144	0.156	0.16	0.186	–	–	–	–	–
HCC-78	–	0.681	0.625	0.474	–	–	–	–	0.449	0.338	0.351	0.356	0.55	–	0.655	0.543	0.4	0.513
NCI-H1944	0.45	0.46	0.467	0.364	0.73	0.713	0.771	0.718	0.226	0.212	0.221	0.169	0.436	–	–	–	–	–
NCI-H2170	0.47	0.472	0.42	0.36	0.413	0.638	0.52	0.804	0.532	0.654	0.544	0.74	0.423	–	–	–	–	–
EBC-1	–	–	–	–	–	–	–	–	–	–	–	–	–	0.602	0.644	0.477	0.411	0.353
NCI-H1563	–	–	–	–	0.528	0.506	0.509	0.479	0.395	0.445	0.416	0.451	–	0.855	0.897	0.687	0.898	0.929
NCI-H2342	0.748	0.723	0.781	0.774	0.66	0.848	0.72	0.821	0.327	0.335	0.348	0.329	0.657	–	–	–	–	–
A549	–	0.277	0.212	0.0722	–	–	–	–	–	–	–	–	0.201	–	–	–	–	–
HCC-366	0.392	0.33	0.364	0.176	–	–	–	–	0.786	0.601	0.598	0.22	0.404	–	1.05	0.794	0.945	1.08
